{
  "source": "ChEMBL document CHEMBL5727817",
  "about": "“3′ end caps, 5′ end caps and combinations thereof for therapeutic RNA” (2020)",
  "data": [
    {"test": "thermodynamic (Steady State Affinity) binding analysis: A subset of compounds was further characterized to determine dissociation constants using thermodynamic (Steady State Affinity) binding analysis.", "units": {"Kd": "nM"}, "values": [
      {"compound": "Nc1nc([O-])c2c(n1)n([C@H]1O[C@@H](COP(=O)(O)O)[C@H](O)[C@@H]1O)c[n+]2Cc1ccccc1CS(=O)(=O)c1ccccc1", "Kd": 30},
      {"compound": "Nc1nc([O-])c2c(n1)n([C@H]1O[C@@H](COP(=O)(O)O)[C@H](O)[C@@H]1O)c[n+]2Cc1ccc(-c2ccccc2F)cc1", "Kd": 410},
      {"compound": "Nc1nc([O-])c2c(n1)n([C@H]1O[C@@H](COP(=O)(O)O)[C@H](O)[C@@H]1O)c[n+]2Cc1cccc(OCc2ccccc2)c1", "Kd": 580},
      {"compound": "Nc1nc([O-])c2c(n1)n([C@H]1O[C@@H](COP(=O)(O)O)[C@H](O)[C@@H]1O)c[n+]2Cc1ccc(-c2ccccc2)c(Cl)c1", "Kd": 110},
      {"compound": "CO[C@H]1[C@@H](O)[C@H](COP(=O)(O)O)O[C@@H]1n1c[n+](CCOc2ccc(Cl)cc2)c2c([O-])nc(N)nc21", "Kd": 160},
      {"compound": "Nc1nc([O-])c2c(n1)n([C@H]1O[C@@H](COP(=O)(O)O)[C@H](O)[C@@H]1O)c[n+]2Cc1cccc(Oc2ccccc2)c1", "Kd": 220},
      {"compound": "Nc1nc([O-])c2c(n1)n([C@H]1O[C@@H](COP(=O)(O)O)[C@H](O)[C@@H]1O)c[n+]2Cc1ccc(-c2ccccc2)cc1", "Kd": 300}
    ]}
  ]
}
